Results from patent publication US20110294766A1, “16 Alpha, 17 Alpha-Acetal Glucocorticosteroidal Derivatives and their Use” (AstraZeneca AB, priority 2008, published 2011).

Target: T1, recombinant human GR (Homo sapiens, UniProt P04150)
T1 construct: purchased Panvera/Invitrogen P2812 (kit P2893)
T1 sequence (P04150 1-777): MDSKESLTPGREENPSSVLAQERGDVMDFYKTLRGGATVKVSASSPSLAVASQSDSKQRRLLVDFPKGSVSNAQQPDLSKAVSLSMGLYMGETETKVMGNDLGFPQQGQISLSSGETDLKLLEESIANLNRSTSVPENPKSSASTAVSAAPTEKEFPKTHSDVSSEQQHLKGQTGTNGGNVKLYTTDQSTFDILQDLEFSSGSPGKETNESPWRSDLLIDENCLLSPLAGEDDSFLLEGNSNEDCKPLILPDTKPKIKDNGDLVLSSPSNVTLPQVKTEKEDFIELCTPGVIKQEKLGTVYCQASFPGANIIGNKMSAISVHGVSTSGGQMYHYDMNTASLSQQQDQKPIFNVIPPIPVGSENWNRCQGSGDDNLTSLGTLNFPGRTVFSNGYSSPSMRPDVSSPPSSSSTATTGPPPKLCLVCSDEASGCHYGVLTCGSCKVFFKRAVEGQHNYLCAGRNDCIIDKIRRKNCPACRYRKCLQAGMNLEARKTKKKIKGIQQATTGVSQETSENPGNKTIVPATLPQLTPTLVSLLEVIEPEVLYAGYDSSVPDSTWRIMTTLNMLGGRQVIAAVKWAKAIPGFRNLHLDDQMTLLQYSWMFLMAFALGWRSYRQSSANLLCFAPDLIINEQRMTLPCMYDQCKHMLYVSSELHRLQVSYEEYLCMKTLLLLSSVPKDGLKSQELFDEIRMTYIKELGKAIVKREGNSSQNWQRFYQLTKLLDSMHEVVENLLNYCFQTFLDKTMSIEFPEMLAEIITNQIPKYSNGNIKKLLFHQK
Assay: Human Glucocorticoid Receptor (GR) Assay (fluorescence polarization, Panvera/Invitrogen kit)
Conditions: GS Red tracer, 2 hours at room temperature, 100% control 10 μM Dexamethasone, read-out: Inhibition of GR binding, IC50
Procedure: Human Glucocorticoid Receptor (GR) Assay The assay is based on a commercial kit from Panvera/Invitrogen (Part number P2893). The assay technology is fluorescence polarization. The kit utilises recombinant human GR (Panvera, Part number P2812), a Fluoromone™ labelled tracer (GS Red, Panvera, Part number P2894) and a Stabilizing Peptide 10× (Panvera, Part number P2815). The GR and Stabilizing Peptide reagents are stored at −70° C. while the GS Red is stored at −20° C. Also included in the kit are 1M DTT (Panvera, Part number P2325, stored at −20° C.) and GR Screening buffer 10× (Panvera, Part number P2814, stored at −70° C. initially but once thawed stored at room temperature). Avoid repeated freeze/thaws for all reagents. The GR Screening buffer 10× comprises 100 mM potassium phosphate, 200 mM sodium molybdate, 1 mM EDTA and 20% DMSO. Test compounds (1 μL) and controls (1 μL) in 100% DMSO were added to black polystyrene 384-well plates (Greiner low volume black flat-bottom, part number 784076). 0% control was 100% DMSO and 100% control was 10 μM Dexamethasone. Background solution (8 μL; assay buffer 10×, Stabilizing Peptide, DTT and ice cold MQ water) was added to the background wells. GS Red solution (7 μL; assay buffer 10×, Stabilizing Peptide, DTT, GS Red and ice cold water) was added to all wells except background wells. GR solution (7 μL; assay buffer 10×, Stabilizing Peptide, DTT, GR and ice cold water) was added to all wells. The plate was sealed and incubated in a dark at room temperature for 2 hours. The plate was read in an Analyst plate reader (LJL Biosystems/Molecular Devices Corporation) or other similar plate reader capable of recording fluorescence polarization (excitation wavelength 530 nm, emission wavelength 590 nm and a dichroic mirror at 561 nm).

Structure (SMILES) | IC50
C[C@]12C=CC(=O)C=C1[C@@H](F)C[C@H]1[C@@H]3C[C@H]4OC(c5ccc(Cl)cc5)O[C@@]4(C(=O)SCF)[C@@]3(C)C[C@H](O)[C@@]12F (stereo partly drawn) [Example 29, S-(Fluoromethyl)(4aS,4bR,5S,6aS,6bS,9aR,10aS,10bS,12S)-8-(4-chlorophenyl)-4b,12-difluoro-5-hydroxy-4a,6a-dimethyl-2-oxo-2,4a,4b,5,6,6a,9a,10,10a,10b,11,12-dodecahydro-6bH-naphtho[2′,1′:4,5]indeno[1,2-d][1,3]dioxole-6b-carbothioate] | 1.3 nM
C[C@]12C=CC(=O)C=C1[C@@H](F)C[C@H]1[C@@H]3C[C@H]4OC(c5ccccc5)O[C@@]4(C(=O)SCF)[C@@]3(C)C[C@H](O)[C@@]12F (stereo partly drawn) [Example 30, S-(Fluoromethyl)(4aS,4bR,5S,6aS,6bS,9aR,10aS,10bS,12S)-4b,12-difluoro-5-hydroxy-4a,6a-dimethyl-2-oxo-8-phenyl-2,4a,4b,5,6,6a,9a,10,10a,10b,11,12-dodecahydro-6bH-naphtho[2′,1′:4,5]indeno[1,2-d][1,3]dioxole-6b-carbothioate] | 1.1 nM
C[C@]12C=CC(=O)C=C1CC[C@@H]1[C@@H]2[C@@H](O)C[C@@]2(C)[C@H]1C[C@H]1O[C@@H](c3cccs3)O[C@]12C(=O)SCF [Example 35, S-(Fluoromethyl)(4aR,4bS,5S,6aS,6bS,8R,9aR,10aS,10bS)-5-hydroxy-4a,6a-dimethyl-2-oxo-8-thiophen-2-yl-2,4a,4b,5,6,6a,9a,10,10a,10,11,12-dodecahydro-6bH-naphtho[2′,1′:4,5]indeno[1,2-d][1,3]dioxole-6b-carbothioate] | 1.1 nM

Compounds with a lower IC50, results first:

IC50 | Structure (SMILES)
0.98 nM | C[C@]12C=CC(=O)C=C1[C@@H](F)C[C@H]1[C@@H]3C[C@H]4O[C@@H](c5ccccc5)O[C@@]4(C(=O)SCC#N)[C@@]3(C)C[C@H](O)[C@@]12F [Example 31, S-(Cyanomethyl)(4aS,4bR,5S,6aS,6bS,9aR,10aS,10bS,12S)-4b,12-difluoro-5-hydroxy-4a,6a-dimethyl-2-oxo-8-phenyl-2,4a,4b,5,6,6a,9a,10,10a,10b,11,12-dodecahydro-6bH-naphtho[2′,1′:4,5]indeno[1,2-d][1,3]dioxole-6b-carbothioate]
1 nM | C[C@]12C=CC(=O)C=C1[C@@H](F)C[C@H]1[C@@H]3C[C@H]4OC(c5cccc6c5OCC6)O[C@@]4(C(=O)SCF)[C@@]3(C)C[C@H](O)[C@@]12F (stereo partly drawn) [Example 32, S-(Fluoromethyl)(4aS,4bR,5S,6aS,6bS,9aR,10aS,10bS,12S)-8-(2,3-dihydro-1-benzofuran-7-yl)-4b,12-difluoro-5-hydroxy-4a,6a-dimethyl-2-oxo-2,4a,4b,5,6,6a,9a,10,10a,10b,11,12-dodecahydro-6bH-naphtho[2′,1′:4,5]indeno[1,2-d][1,3]dioxole-6b-carbothioate]
1 nM | Cc1noc(C)c1C1O[C@@H]2C[C@H]3[C@@H]4C[C@H](F)C5=CC(=O)C=C[C@]5(C)[C@@]4(F)[C@@H](O)C[C@]3(C)[C@]2(C(=O)SCF)O1 (stereo partly drawn) [Example 33, S-(Fluoromethyl)(4aS,4bR,5S,6aS,6bS,9aR,10aS,10bS,12S)-8-(3,5-dimethylisoxazol-4-yl)-4b,12-difluoro-5-hydroxy-4a,6a-dimethyl-2-oxo-2,4a,4b,5,6,6a,9a,10,10a,10b,11,12-dodecahydro-6bH-naphtho[2′,1′:4,5]indeno[1,2-d][1,3]dioxole-6b-carbothioate]
1 nM | C[C@]12C=CC(=O)C=C1CC[C@@H]1[C@@H]2[C@@H](O)C[C@@]2(C)[C@H]1C[C@H]1OC(c3ccco3)O[C@]12C(=O)SCF (stereo partly drawn) [Example 34, S-(Fluoromethyl)(4aR,4bS,5S,6aS,6bS,9aR,10aS,10bS)-8-furan-2-yl-5-hydroxy-4a,6a-dimethyl-2-oxo-2,4a,4b,5,6,6a,9a,10,10a,10b,11,12-dodecahydro-6bH-naphtho[2′,1′:4,5]indeno[1,2-d][1,3]dioxole-6b-carbothioate]
